Data reported in the supplement of paper PMC7840683.
± gives the standard deviation of the averaged measurements.

System: HepaRG
Test: LDH release cytotoxicity, % of total lysis control; higher = more cytotoxic
Conditions: 48 h
Outline: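 Single-lot HepaRG cells in collagen I-coated 96-well plates were treated for 48 h in serum-free induction medium containing 0.5% DMSO with test chemicals in eight-point half-log series up to 100 µM. For total lysis, wells received 0.1% Triton X. LDH in 50 µL spent medium was assayed by resorufin fluorescence with CytoTox-ONE. Percent cytotoxicity was normalized to the on-plate vehicle and total lysis controls, with duplicates averaged.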

SMILES | LDH release cytotoxicity (0.03162 µM) [%] | LDH release cytotoxicity (0.1 µM) [%] | LDH release cytotoxicity (0.3162278 µM) [%] | LDH release cytotoxicity (1 µM) [%] | LDH release cytotoxicity (3.16228 µM) [%] | LDH release cytotoxicity (10 µM) [%] | LDH release cytotoxicity (31.6228 µM) [%] | LDH release cytotoxicity (100 µM) [%] | also measured
CCCCOC(=O)C(C)Oc1ccc(Oc2ccc(C(F)(F)F)cn2)cc1 (centres undefined) [Fluazifop-butyl] | -0.307 ± 2.5 | -0.771 ± 1.4 | -0.631 ± 0.81 | -0.375 ± 0.17 | -0.996 ± 0.14 | 0.207 ± 1.2 | 0.479 ± 1.7 | 1.84 ± 2.7 | 
Nc1ccc(N=Nc2ccccc2)cc1 [4-Aminoazobenzene] | -0.0491 ± 1.1 | -1.19 ± 0.14 | -1.19 ± 0.25 | -1.05 ± 0.38 | -1.2 ± 0.12 | -0.585 ± 0.52 | 0.184 ± 1.3 | 0.63 ± 1.1 | 
Cc1c2ccccc2c(C)c2c1ccc1ccccc12 [7,12-Dimethylbenz(a)anthracene] | -1.46 ± 0.43 | -1.68 ± 0.46 | -1.43 ± 0.069 | -1.27 ± 1.4 | -1.45 ± 0.084 | -1.64 ± 0.1 | 1.86 ± 0.39 | -0.663 ± 0.032 | 
Clc1ccc(C(c2ccc(Cl)cc2)C(Cl)(Cl)Cl)cc1 [Dichlorodiphenyltrichloroethane] | 0.0415 ± 1 | 0.0911 ± 1 | 0.015 ± 0.3 | 0.105 ± 0.45 | 0.853 ± 0.39 | 0.81 ± 0.52 | 0.658 ± 0.99 | 1.05 ± 0.28 | 
CCC(C)(NC(=O)c1cc(Cl)c(C)c(Cl)c1)C(=O)CCl (centres undefined) [Zoxamide] |  |  |  |  |  |  |  |  | LDH release cytotoxicity (0.0317809 µM): -0.27 ± 0.064%; LDH release cytotoxicity (0.1005 µM): -0.966 ± 0.8%; LDH release cytotoxicity (0.317809 µM): -0.7429 ± 0.0016%; LDH release cytotoxicity (1.005 µM): -1.43 ± 0.81%; LDH release cytotoxicity (3.17809 µM): -0.947 ± 0.12%; LDH release cytotoxicity (10.05 µM): -0.343 ± 0.64%; LDH release cytotoxicity (31.7809 µM): -1.15 ± 0.96%; LDH release cytotoxicity (100.5 µM): 41.9 ± 2.7%
CC(C)CCO [Isopentyl alcohol] |  |  |  |  |  |  |  |  | LDH release cytotoxicity (0.0317809 µM): -1.55 ± 0.48%; LDH release cytotoxicity (0.1005 µM): -1.43 ± 0.1%; LDH release cytotoxicity (0.317809 µM): -2.18 ± 0.83%; LDH release cytotoxicity (1.005 µM): -2.36 ± 0.33%; LDH release cytotoxicity (3.17809 µM): -1.495 ± 0.0016%; LDH release cytotoxicity (10.05 µM): -1.51 ± 0.068%; LDH release cytotoxicity (31.7809 µM): -1.18 ± 0.042%; LDH release cytotoxicity (100.5 µM): -0.0999 ± 0.2%
COc1cc(C=O)cc2c1C(COC(N)=O)C1(OC(C)=O)ON2CC2C1N2C(C)=O (centres undefined) | -0.71 ± 0.46 | -0.654 ± 0.1 | 1.14 ± 1.2 | 17.5 ± 1.6 | 62.9 ± 2.6 | 67.8 ± 2.4 | 73 ± 2.2 | 73.3 ± 2.3 | 
CCCCCCCCCC[N+](C)(C)[O-] [N,N-Dimethyldecylamine oxide] |  | -2.43 ± 1.6 |  | -2 ± 1.5 | -2.26 ± 0.2 | -2.07 ± 0.077 | -0.853 ± 1 | 1.25 ± 0.8 | LDH release cytotoxicity (0.031623 µM): -1.68 ± 1.2%; LDH release cytotoxicity (0.316228 µM): -2.73 ± 1.6%
Cc1cc(Cc2ccc(N)c(C)c2)ccc1N [4,4'-Diamino-3,3'-dimethyldiphenylmethane] | -1.54 ± 0.07 | -0.939 ± 0.25 | -0.759 ± 0.17 | -1.39 ± 0.074 | -0.662 ± 0.88 | -0.124 ± 0.55 | -0.39 ± 0.76 | -0.749 ± 1.9 | 
CCN(Cc1cccc(S(=O)(=O)O)c1)c1ccc(C(=C2C=CC(=[N+](CC)Cc3cccc(S(=O)(=O)O)c3)C=C2)c2ccccc2S(=O)(=O)O)cc1 [FD&C Blue No. 1] |  |  |  |  |  |  |  |  | LDH release cytotoxicity (0.0204 µM): -1.63 ± 0.15%; LDH release cytotoxicity (0.0645 µM): -0.475 ± 0.088%; LDH release cytotoxicity (0.203967 µM): -1.54 ± 0.48%; LDH release cytotoxicity (0.645 µM): -1.35 ± 0.38%; LDH release cytotoxicity (2.03967 µM): -1.04 ± 0.34%; LDH release cytotoxicity (6.45 µM): -0.732 ± 0.83%; LDH release cytotoxicity (20.3967 µM): -1.07 ± 0.46%; LDH release cytotoxicity (64.5 µM): -1.76 ± 0.13%
c1ccc(N=Nc2ccccc2)cc1 [Azobenzene] | -1.57 ± 0.37 | -1.67 ± 0.46 | -0.316 ± 1.5 | -2 ± 0.14 | -1.63 ± 0.18 | 0.0427 ± 0.32 | 1.14 ± 0.012 | 3.66 ± 1.6 | 
Cc1nc(C)nc(N2CC(C)N(c3ccnc(C(C)O)n3)C(C)C2)n1 (centres undefined) |  |  |  |  |  |  |  |  | LDH release cytotoxicity (0.01581 µM): -1.17 ± 0.94%; LDH release cytotoxicity (0.05 µM): -0.963 ± 0.92%; LDH release cytotoxicity (0.1581139 µM): -1.7 ± 1%; LDH release cytotoxicity (0.5 µM): -1.95 ± 0.69%; LDH release cytotoxicity (1.5811388 µM): -0.835 ± 0.61%; LDH release cytotoxicity (5 µM): -1.01 ± 0.15%; LDH release cytotoxicity (15.8114 µM): -0.652 ± 0.091%; LDH release cytotoxicity (50 µM): 0.767 ± 0.63%
CCOc1ccc2c(n1)C(=O)C(C(=O)NCc1ccccc1)C=N2 (centres undefined) | -1.14 ± 0.94 | -1.5 ± 0.24 | -0.931 ± 0.3 | -1.34 ± 0.13 | -0.884 ± 0.52 | -0.792 ± 0.018 | -1.83 ± 0.86 | -0.163 ± 0.27 | 
